Assay results reported in publication PMC12392461, “Beyond Estrogenicity: A Comparative Assessment of Bisphenol A and Its Alternatives in In Vitro Assays Questions Safety of Replacements” (Environmental Science & Technology, 2025).
Read-outs that look alike come from different tables or passages of the source.

What was measured:
Estrogen Receptor ERα = biological target: T1, Estrogen Receptor ERα (Homo sapiens, UniProt P03372); experiment: cell-based; settings: for EC10, ERα (M): 10% of maximum effect of E2; for EC10, linear transformed / EC10, linear / EC10: in M; for SR-ScoreERα: SR-Score, sigma k=1, x=5; for Efficacy % / EC10 / REPBPA: This Study; for EC10: ERα; for REPBPA: relative estrogenic potency vs BPA; for Specificity ratio (SRbaseline) SRERα: against baseline cytotoxicity; for log(1/EC10) ERα: input of the ToxPi score, values up to 1.00; for Relative effect potency REPERα: relative to BPA
T1 sequence (P03372 311-547 limits assumed): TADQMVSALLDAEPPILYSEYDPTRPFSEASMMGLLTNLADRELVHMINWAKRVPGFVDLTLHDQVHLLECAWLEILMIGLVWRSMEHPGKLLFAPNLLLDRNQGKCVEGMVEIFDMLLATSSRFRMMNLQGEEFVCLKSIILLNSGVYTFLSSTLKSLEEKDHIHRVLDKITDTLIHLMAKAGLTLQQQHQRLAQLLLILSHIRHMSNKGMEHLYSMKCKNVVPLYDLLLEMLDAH
Summary of the method: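 ERα-UAS-bla GripTite and PPARγ-UAS-bla reporter cells were seeded in assay medium with 2% charcoal-stripped FBS and held 24 h at 37 °C before dosing. Viability came from IncuCyte confluency before and after exposure. EC10 used only concentrations below IC10; Emax% is the log-logistic curve maximum relative to the reference chemical.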

[1] = test system: HEK293H, HEK293T, H4IIe, MCF7 and SH-SY5Y cells; settings: for cytotoxicity,median REPBPA,IC10: median IC10 relative to BPA; for IC10,Median (M): median cytotoxicity of all cell lines; for IC10, median: median cytotoxicity over all cell lines
Protocol: Cell culture conditions and bioassay protocols including response detection are provided in Text S2.1–2.4 and Table S3. − Cell viability was determined from cell confluency using an IncuCyte S3 Live-Cell Analysis System (Sartorius AG, Essen, Germany) before and after exposure, except for SH-SY5Y cells (live–dead staining with Nuclear Green LcS1 and propidium iodide, Abcam, UK). For metabolic activation experiments, cell viability was assessed using the ToxBLAzer DualScreen Kit (Thermo Fisher Scientific) to capture the remaining toxicity in ERα-UAS-bla GripTite after treatment with the aCYP catalyst (details in Text S2.4).
For ARE, the concentration that triggered an induction ratio of 1.5 (ECIR1.5) was used as the benchmark value, as detailed in Text S2.5. IC10 values also served as a threshold for data analysis in all assays; only concentrations below IC10 were considered when deriving EC10 or ECIR1.5.
TR indicates whether the cytotoxicity is triggered by specific toxicity mechanisms (TR ≥ 10) or not (0.1< TR< 10). 3 TR=IC10,baseline/IC10 We measured the cytotoxicity of BPA and its alternatives in HEK293H (PPARγ), HEK293T (ERα), H4IIe (AhR CALUX), MCF7 (ARE/MMP), and differentiated SH-SY5Y cells (Table S6). […]
medium, supplemented with 2% B-27 Supplement and 2 mM GlutaMAX Supplement. SH - SY5Y cells were differentiated with 10 µM all-trans retinoic acid prior to the assay.
S2.2: Cell Seeding and Incubation. For all bioassays, cell suspensions in the respective assay medium were dispensed into each well of 384-well plates using a MultiFlo Dispenser (Biotek, (now Agilent), Winooski, VT, U.S.). After seeding, the plates were incubated at 37° C and 5% CO₂ for […]. The final cell densities and plate types were as follows: Black poly-D-lysine […]
6500 cells/well, ERα: 5000 cells/well. White 384-well plates with a clear bottom (Product No.
NYC, U.S.) for AhR: 3250 cells/well. Black Collagen I coated plates were used (Product No.
S2.3: Chemical Dosing and Assay Analysis Procedures. The dosing procedure and high-throughput assay workflow have been described in detail before. 9 The dosing concentrations […]
Stock solutions were then either added directly to the respective cell culture medium or evaporated under nitrogen, followed by replenishment with fresh medium. The final solvent content in each well was kept below 1% for methanol, 0% for acetonitrile.
Dosing plates were prepared as 11 -step serial dilutions using a Hamilton Microlab Star robotic system (Hamilton, Bonaduz, Switzerland), and chemicals were dosed in duplicates by transferring 10 μL twice from the dosing plates to the cell plates . After quantifying cell confluency as described in S2. 4., the exposed cells were incubated at 37° C and 5% CO₂ for an additional 24 h. All chemicals were tested in all assays with at least three independent […]
S2.4: Cell Viability Measurement s and bioanalytical protocols . The confluency as a measure of cell viability was determined with an IncuCyte S3 Live -Cell Analysis System (Sartorius AG, Essen, Germany). With this method the confluency of cells in a microscopy image are normalized to control wells without cells and compared before and after 24 hours of exposure.
This method has been described previously 13. Cell viability of SH-SY5Y cells was measured […]
propidium iodide (PI, Abcam, Cambridge, U.K.).14 Nuclear Green LCS1 is a membrane-permeable dye that stains the nuclei of all cells, whereas PI only enters cells with compromised membrane integrity (non-viable cells). After staining, live cells show green nuclei without red fluorescence, while dead cells display both green and red nuclear fluorescence due to PI […]
intercalation. Cell viability was calculated as the proportion of green-only nuclei relative to the […]
For experiments with the preceding aCYP activation, ERα cell viability was additionally calculated from the readout of the ToxBLAzer reagent. The ToxBLAzer assay was conducted following the manufacturer's instructions (Thermo Fisher, Waltham, MA, U.S.).13 Fluorescence

[2] = Octanol-water partition constant (log Kow) measurement, Sirius T3 potentiometric log P; type: physicochemical; settings: experimental, this study
Protocol: Physicochemical properties provide input parameters for the baseline toxicity model. Acidity constants (pK a) and octanol–water partition constants of the neutral species (K ow) were measured with a Sirius T instrument from Pion Inc. (Sussex, UK) (Text S1.2 and Table S1). A detailed description of the pK a and K ow measurements can be found in literature. , […]
S1.2: pKa and log Kow measurements […]
titrator (Pion Inc., Sussex, U.K.). […]
UV absorbance. For log Kow measurement, approximately 1 mg of test chemical was added to a sample vial and the measurement was done automatically via the potentiometric log P protocol. Briefly, each compound is titrated thrice in an immiscible biphasic system of octanol and phosphate buffer solution and pH is continuously recorded. The shift in p Ka -values was used to estimate the log Kow values.2, 3 Data processing was performed with Sirius T3 Refine software (version 2.0.0.0.), and the final p Ka and log Kow values were calculated as the average of three titrations. To ensure reproducibility, measurements were conducted on at least two

[3] = 15 min
Protocol: The mixtures were adjusted to a final volume of 100 μL with acetonitrile (ACN). The reaction mix was incubated for 15 min at 30 °C and 1000 rpm on a Bioshake iQ orbital shaker from QInstruments (Jena, Germany). Additionally, a mixture without test compounds was prepared as a control. Subsequently, 10 μL of the reaction mixture was transferred into a conical dosing vial and evaporated under a nitrogen flow.
For chemical analysis, 10 μL of the reaction mixture was concentrated under vacuum (CentriVap, Labconco, Kansas City, MO, USA), diluted to 1 mg/L in ACN or ethyl acetate. The chemical analysis of the reaction mixtures was performed using liquid chromatography (LC) and gas chromatography (GC) coupled with various detection techniques, preferably Multiple Reaction Monitoring (MRM). Data acquisition and processing were carried out using the software MassHunter. Quantification was based on external calibrations.
The Cparent-Ratio quantifies the extent of oxidation of the parent compound after the abiotic CYP reaction. It was calculated as the ratio of the parent compound concentration after oxidation (C parent, after oxidation) to its concentration before oxidation (C parent, before oxidation) as shown in eq . […] 8 Cparent‐Ratio=Cparent,after oxidation/Cparent,before oxidation

[4] = against experimental cytotoxicity

| SMILES | EC10, ERα (M) (Estrogen Receptor ERα) | SR-ScoreERα (Estrogen Receptor ERα) | Efficacy % (Estrogen Receptor ERα) | EC10 (Estrogen Receptor ERα) | REPBPA (Estrogen Receptor ERα) | Specificity ratio (SRbaseline) SRERα (Estrogen Receptor ERα) | Specificity ratio (SRcytotoxicity) SRERα (Estrogen Receptor ERα; [4]) | EC10, ERα (Estrogen Receptor ERα; effect) | log(1/EC10) ERα (Estrogen Receptor ERα) | Emax (Estrogen Receptor ERα; read-out: Emax%ERα) | Relative effect potency REPERα (Estrogen Receptor ERα) | cytotoxicity,median REPBPA,IC10 [1] | IC10,Median (M) [1] | IC10, median [1] | log Kow used [2] | also measured |
| --- | --- | --- | --- | --- | --- | --- | --- | --- | --- | --- | --- | --- | --- | --- | --- | --- |
| O=C(OCc1ccccc1)c1ccc(O)cc1 [BzPB, Benzyl 4-hydroxybenzoate] | 3.02 × 10^–6 M | 1.00 | 53.46% | 3.02E-06 | 1.23E-01 | 5.49 | 13.93 | 3.02 µM | 0.70 | 53% | 0.12 | 0.53 | 1.32 × 10^–4 M | 132 µM | 3.30 | EC10, linear transformed (Estrogen Receptor ERα; Bioassay ERα, dosing range all): 3.07E-06; EC10, linear (Estrogen Receptor ERα; Bioassay ERα, dosing range all, linear model fit): 1.96E-06; logEC10 (Estrogen Receptor ERα; Bioassay ERα, dosing range all, log-logistic model fit): -5.52 |
| Oc1ccc(C(c2ccc(O)cc2)(C(F)(F)F)C(F)(F)F)cc1 [BPAF, 4,4'-(1,1,1,3,3,3-Hexafluoropropane-2,2-diyl)diphenol] |  |  |  |  |  |  |  |  |  |  |  | 3.07 | 2.28 × 10^–5 M | 22.8 µM | 4.72 | % Loss [3]: -9% |
| CC(C)(c1cc(Br)c(O)c(Br)c1)c1cc(Br)c(O)c(Br)c1 [TBBPA, 3,3',5,5'-Tetrabromobisphenol A] |  |  |  |  |  |  |  |  |  |  |  |  |  |  | 5.91 |  |
| CC(C)(c1ccc(O)cc1)c1ccc(O)cc1 [BPA, 4,4'-(Propane-2,2-diyl)diphenol, reference compound] | 3.70 × 10^–7 M | 1.00 | 37.53% | 3.70E-07 | 1.00E+00 | 31.86 |  | 0.37 µM | 0.82 | 38% | 1.00 |  |  |  | 4.25 | EC10, ERα (Estrogen Receptor ERα): 0.37 µM; EC10, linear transformed (Estrogen Receptor ERα; Bioassay ERα, dosing range high): 1.46E-07; EC10, linear (Estrogen Receptor ERα; Bioassay ERα, dosing range high, linear model fit): 1.81E-07; logEC10 (Estrogen Receptor ERα; Bioassay ERα, dosing range high, log-logistic model fit): -7.06; EC10, linear transformed (Estrogen Receptor ERα; Bioassay ERα, dosing range low): 3.70E-07; EC10, linear (Estrogen Receptor ERα; Bioassay ERα, dosing range low, linear model fit): 2.69E-07; logEC10 (Estrogen Receptor ERα; Bioassay ERα, dosing range low, log-logistic model fit): -6.43; SRcytotoxicity (ERα) (Estrogen Receptor ERα; human, 24 h): 115; Specificity ratio (SRcytotoxicity) SRERα (Estrogen Receptor ERα; human, 24 h): 115.28; times less potent than the reference estradiol (E2) (Estrogen Receptor ERα; ratio of EC10): 18700 |
| O=S(=O)(c1ccc(O)cc1)c1ccccc1O [2,4-BPS, 2,4'-Dihydroxydiphenyl sulfone] | 1.98 × 10^–5 M | 1.00 |  |  |  | 27.68 | 21.81 | 19.8 µM | 0.60 |  | 0.0187 |  |  |  | 1.90 | times less potent than BPS (ERα) (Estrogen Receptor ERα): 10; REPBPA,ERα (relative effect potency in relation to BPA) (Estrogen Receptor ERα; EC10,BPA/EC10,BPx): 0.019; EC10, linear transformed (Estrogen Receptor ERα; ERα bioassay, dosing range all): 3.59E-05; EC10, linear (Estrogen Receptor ERα; ERα bioassay, dosing range all, linear model): 5.15E-05; logEC10 (Estrogen Receptor ERα; ERα bioassay, dosing range all, log-logistic model): -4.70; ERα activation (Estrogen Receptor ERα; at noncytotoxic concentrations): did not activate ERα at noncytotoxic concentrations; Emax (Estrogen Receptor ERα; read-out: Emax%ERα, maximum efficacy relative to E2): 19% |
